Data published in patent US10513623B2, “Aqueous ink, ink cartridge and image recording method” (CANON KABUSHIKI KAISHA, priority 2017, dated 2019).

Tests used:
[1] = Aqueous solubility of solvent A at 20° C.; assay type: physicochemical; details: for Aqueous solubility: 20° C.
[2] = Log distribution coefficient of solvent A; assay type: physicochemical

SMILES	Aqueous solubility [1] [% by mass]	Log distribution coefficient [2]	aqueous solubility of the solvent A ([1]; solvent A of ink 1, rounded value) [%]
CC(O)COc1ccccc1 (centres unmarked) [1-Phenoxy-2-propanol]	1.1	1.51	
OCCc1ccccc1 [Phenethyl alcohol]	2.2		
CC(O)Cc1ccccc1 (centres unmarked) [1-Phenyl-2-propanol]	0.58	1.71	
OCCCc1ccccc1 [3-Phenyl-1-propanol]	0.568	1.88	
OCc1ccccc1 [Benzyl alcohol]	4.29	1.03	
OCCOc1ccccc1 [2-Phenoxyethanol]	2.67	1.16	2.7
OCCCCc1ccccc1 [4-Phenyl-1-butanol]	0.1	2.4	
